Assay results reported in patent publication US11207421B2, “Nanostructures comprising cobalt porphyrin-phospholipid conjugates and polyhistidine-tags” (The Research Foundation for The State University of New York, priority 2015, dated 2021).
Where a SMILES comes first, the peptide text is derived from it. Where no end group is shown, it is not given here. The star is where a group is joined. 5FAM = O=C1OC2(c3ccc(O)cc3Oc3cc(O)ccc32)c2ccc(C(=O)*)cc21; Palmitoyl = CCCCCCCCCCCCCCCC(=O)*

Assays:
[1] = system: murine RAW 264.7 macrophage cells; assay: DY-490-OspA uptake by macrophage cells; assay type: cell-based; conditions: 2 hr incubation
Procedure: FIG. 24. Assessing epitope availability and stability of antigen-functionalized nanoliposomes. (A) Stability of nanoliposome-antigen particles in 20% (v/v) human serum based on fluorescence quenching assay. (B) Immunoprecipitation of OspA-bound liposomes by OspA-specific monoclonal antibody LA-2. (C) DY-490-OspA uptake by murine RAW 264.7 macrophage cells following 2 hr incubation with indicated samples. Cytochalasin B was supplemented to medium 1 hr prior to incubation. Error bars represent standard deviations for n=3 experiments.
Practical utility of liposomes as antigen delivery vesicles is attributed from its enhanced uptake by antigen presenting cells. […] The macrophage selective uptake of PoP/PHAD liposomes in the mixed form further implicates that physical association of antigen to liposomes may be necessary for liposomal adjuvanticity. Co-delivery of surface-exposed antigen and immunostimulant to immune cells is an important facet of the CoPoP/PHAD liposome. Cellular uptake mechanism via phagocytosis is supported by the diminished uptake for both antigen and liposome in the presence of cytochalasin B.

his-tagged OspA = biological target: T1, his-tagged OspA (Borreliella burgdorferi, UniProt P0CL66); assay: OspA binding to CoPoP/PHAD liposomes (native PAGE, microBCA); set-up: species or system Borrelia burgdorferi; conditions: microBCA assay of supernatant after high speed centrifugation
T1 construct: made in house; host or cells: E. coli
T1 sequence (P0CL66 17-273): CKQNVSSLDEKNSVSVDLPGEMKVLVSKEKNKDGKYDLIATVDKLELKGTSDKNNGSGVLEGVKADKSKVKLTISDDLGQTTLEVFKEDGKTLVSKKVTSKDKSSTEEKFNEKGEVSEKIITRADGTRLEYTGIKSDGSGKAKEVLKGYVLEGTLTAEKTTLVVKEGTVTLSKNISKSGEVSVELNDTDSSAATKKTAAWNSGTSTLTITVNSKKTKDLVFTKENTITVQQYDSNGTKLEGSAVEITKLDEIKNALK
Procedure: FIG. 23. […] (D) Hydrodynamic diameter and polydispersity index of liposomes measured using dynamic light scattering. […] Acquisitions were made 3 hr after incubation of liposomes with protein. Error bars represent standard deviations for n=3 measurements.
Spontaneous formation of the proteoliposomes occurs via insertion of the histidine tag into the hydrophobic bilayer and subsequent coordination of the imidazole moiety to the metal center. Binding conditions for were evaluated using native electrophoresis, which allows physical separation of liposome-bound and free proteins due to the limiting pore size of the acrylamide gel. Observed optimum binding mass ratio of 4:1 of PHAD:OspA (FIG. 23A) is consistent with previous studies using the malaria antigen, Pfs25. […] It can be deduced that the initial phase of binding occurred at a fast rate based from the relative band intensities for time points, 0 and 15 min. At the particleization conditions, specific binding is estimated to be about 80% based from microBCA assay of the supernatant obtained from high speed centrifugation (FIG. 23C).

[2] = assay type: physicochemical; conditions: not told
Procedure: PoP-liposomes were formulated at a 1 mg scale. After dissolving lipids in chloroform in a test tube, the solvent was evaporated and the film was further dried under vacuum overnight. Lipids were rehydrated with 1 mL of phosphate buffered saline (PBS), sonicated, subjected to 10 freeze-thaw cycles and then extruded through 100 nm polycarbonate membranes (VWR #28157-790) with a handheld extruder (Avanti #610000). For protein and peptide binding analysis, liposomes were formed with 10 mol % PoP along with 85 mol % DOPC (Avanti #850375P), and 5 mol % PEG-lipid (Avanti #880120P). […] Liposomes incorporating free Co-porphyrin included 10 molar % Co-pyropheophorbide with 85 mol % DOPC and 5 mol % PEG-lipid. Co-NTA-liposome was prepared using liposomes containing 10 mol % dioleoyl-gycero-NTA (Avanti #790528P). Liposomes were incubated with 20 mg/mL cobalt (II) chloride for 2 hours and then dialized in PBS. Sulforhodamine B loading liposomes contained 10 mol % PoP, 35 mol % cholesterol (Avanti #700000P), 55 mol % DOPC and PEG-lipid as indicated. […] For bilayer integrity and quantitative cell binding studies, 50 mM dye was used, whereas microscopy studies used 10 mM dye.
Given the binding efficacy of the His-tagged peptide to liposomes, bilayer integrity was assessed to determine whether peptide binding induces membrane destabilization. […]

U87 cells [3] = assay: Uptake of CoPoP liposomes bound to his-tagged cell penetrating peptides; assay type: cell-based; conditions: 1 hour incubation; [2:5:30:63] [PoP:CoP:CHOL:DMPC]
Source text: In this example, CoPoP liposomes were targeted to cells via his-tagged cell penetrating peptides. The following his-tagged cell penetrating peptides were obtained: […] (SEQ ID NO:13) (TAT peptide); […] (SEQ ID NO:14) (R8 peptide); […] (SEQ ID NO:15) (PEN peptide).

CoPoP liposomes = assay: Effect of His-tag length on peptide binding to CoPoP liposomes; conditions: FAM-labeled peptides with varying His-tag length
Procedure: 1 μg of fluorescent reporter protein was incubated with 20 μg of liposomes in 200 μL PBS in a 96 well plate. Fluorescence in the FRET channel (ex: 430 nm, em: 525 nm) was measured periodically with a fluorescence microplate reader (Tecan Infinite II). Data were normalized to the FRET signal in the protein without addition of liposomes. EMSA experiments were performed with 2.5 μg protein incubated with 50 μg liposomes followed by electrophoresis in a 0.75% agarose gel with 50 V applied for 90 minutes and imaging with an IVIS Lumina II system with the indicated excitation and emission filters. For serum stability test, […] in 40u l PBS. After […], 40u l FBS was added and incubated for another 8 h (hours). For imidazole displacement experiments, 1 μg of reporter protein was bound to 20 μg liposomes in PBS. Imidazole was then titrated and binding was assessed with fluorescence. For serum stability, 1 μg of reporter protein was bound to 20 μg liposomes in 100 μL PBS and then an equal volume of fetal bovine serum (VWR #82013-602) was added and binding was monitored with fluorescence. Peptide binding was assessed with RGD-His FAM fluorophore quenching following incubation of 500 ng peptide with 20 μg liposomes.
The effect of His-tag length on peptide binding to CoPoP liposome was examined. A series of N-terminus FAM-labeled peptides was synthesized with varying lengths of His-tag attached to the C-terminus.

U87 cells [4] = assay: Uptake of coated gold nanospheres (confocal reflectance/backscatter microscopy); assay type: cell-based; conditions: free RGD
Procedure: For gold coating, 60 nm citrate-stabilized gold nanospheres (Ted Pella #15709-20) were used to hydrate a 1 mg lipid film composed of 45 mol % distearoyl phosphocholine (Avanti #850365P), 45 mol % distearoyl phosphoglycerol (Avanti #840465X) and 10 mol % PoP. Following brief vortexing and sonication, the samples were repeatedly centrifuged at 1500 relative centrifugal force (rcf) for 15 min. The supernatant was discarded and the pellet was resuspended and re-centrifuged 2 more times. PoP gold was resuspended in water for further analysis.
(§1) For confocal imaging, 10^4 cells were seeded overnight in a Nunc chamber slide (Nunc #155411) in DMEM with 10% fetal bovine serum (FBS). 20 μg of liposomes were added to the serum containing media and incubated for 2 h. Media was removed and the cells were washed with PBS 3 times. Fresh media was added and cells were imaged with microscopy using a Zeiss LSM 710 confocal fluorescence microscope. Gold imaging was carried out in the same way but 633 nm light was used for both excitation and emission for back scatter imaging. After peptide binding, gold was centrifuged to remove any unbound RGD peptide.
Liposomes represent only a subset of all the types of nanomaterials used in biomedical applications. CoPoP was assessed as a generalized surface coating with selective adhesion for His-tags. […]

U87 glioblastoma cells = assay: Targeted uptake of sulforhodamine B-loaded liposomes; assay type: cell-based; conditions: excess free RGD peptide
Procedure: U-87 and MCF-7 cell lines were obtained from ATCC and cultured according to vendor protocol. 2×10^4 cells were seeded overnight in 96-well-plate wells. 500 ng RGD-His peptide was bound with 20 μg of sulforhodamine B loaded liposomes and liposomes were incubated with cells for 2 h. Media was removed, cells were washed with PBS 3 times and then cells and liposomes were lysed with a 1% Triton X-100 solution. Liposomal uptake was assessed by measuring the fluorescence of sulforhodamine B.
as §1, with “After peptide binding, gold was centrifuged to remove any unbound RGD peptide.” left out
Next, RGD-decorated liposomes were assessed whether they could bind to their molecular targets with the established cell-line pair of U87 glioblastoma cells (RGD-binding) and MCF7 breast cancer cells (RGD non-binding). […] Liposomal uptake was assessed by examining the fluorescence in the cells following washing and lysis (to remove any effects of cargo self-quenching). […]

**Q.** For “OspA: his-tagged OspA based on the B31 strain protein sequence without the lipid tail, free non-adjuvanted”, which antigen uptake [1] is on record?
**A.** Minimal uptake

**Q.** With “lysozyme: a non-histidine tagged protein” as the compound, how does the specific binding (his-tagged OspA) read?
**A.** failed to bind

**Q.** Which “membrane permeabilization by lipopeptide” value [2] does the source give for `CCCCCCCCCCCCCCCC(=O)NCCCC[C@H](NC(=O)CNC(=O)[C@H](CCCCN)NC(=O)[C@H](C)NC(=O)CNC(=O)[C@H](C)NC(=O)CNC(=O)[C@H](CCCCN)NC(=O)[C@@H]1CCCN1C(=O)[C@H](CO)NC(=O)[C@H](CC(=O)O)NC(=O)CNC(=O)[C@H](CCCNC(=N)N)NC(=O)CNC(=O)c1ccc2c(c1)C(=O)OC21c2ccc(O)cc2Oc2cc(O)ccc21)C(=O)O` [RGD-palm] (5FAM-GRGDSPKGAGAKGK(Palmitoyl)-OH; C-terminus assumed) here?
**A.** permeabilization of cargo-loaded liposomes

**Q.** For “HHHHHHHGRKKRRQRRRPPQ (SEQ ID NO:13) (cell penetrating peptide) [TAT peptide]”, which “binding and uptake of peptide-bound CoPoP liposomes” value (U87 cells [3]) is on record?
**A.** could bind and get uptaken

**Q.** Which “binding and uptake of peptide-bound CoPoP liposomes” value (U87 cells [3]) does the source give for “HHHHHHHRQIKIWFQNRRMKWKK (SEQ ID NO:15) (cell penetrating peptide) [PEN peptide]” here?
**A.** could bind and get uptaken

**Q.** For “5-FAM-KKGGGGHHHHHHHHHH (SEQ ID NO: 10) (5FAM-KKGGGGHHHHHHHHHH) [10-His]”, which “binding t1/2” value (CoPoP liposomes) is on record?
**A.** 0.333 h

**Q.** With “HHHHHHHRRRRRRRR (SEQ ID NO:14) (cell penetrating peptide) [R8 peptide]” as the compound, how does the “binding and uptake of peptide-bound CoPoP liposomes” value (U87 cells [3]) read?
**A.** could bind and get uptaken

**Q.** With “5-FAM-KKGGGGHH (SEQ ID NO: 6) (5FAM-KKGGGGHH) [2-His]” as the compound, how does the “binding t1/2” value (CoPoP liposomes) read?
**A.** ~10 h

**Q.** Which “binding t1/2” value (CoPoP liposomes) does the source give for “5-FAM-KKGGGGHHHHHH (SEQ ID NO: 8) (5FAM-KKGGGGHHHHHH) [6-His]” here?
**A.** less than one hour

**Q.** Which “inhibition of gold nanoparticle binding” value (U87 cells [4]) does the source give for GRGDSPK (SEQ ID NO: 2) [Free RGD] here?
**A.** inhibited the binding

**Q.** What about the “inhibition of targeted liposome binding” value (U87 glioblastoma cells) of the same compound?
**A.** Binding could be inhibited

**Q.** For “5-FAM-KKGGGG (SEQ ID NO: 5) (5FAM-KKGGGG) [0-His]”, which “binding t1/2” value (CoPoP liposomes) is on record?
**A.** no peptide binding was observed
